Test results published in ChEMBL document CHEMBL1921746, “Chemical constituents of the rhizomes of Hedychium coronarium and their inhibitory effect on the pro-inflammatory cytokines production LPS-stimulated in bone marrow-derived dendritic cells” (Bioorg Med Chem Lett, 2011).
pIC50: −log10 of the molar value. Calls of active or inactive are those of the source. The calls are words filed in the database; no cut-off is given here.

What was measured:
[1] = Cytotoxicity against C57BL/6 mouse BMDC assessed as reduction of cell viability by MTT assay
[2] = tested on: BMDC; assay: Antiinflammatory activity in C57BL/6 mouse BMDC assessed as inhibition of LPS-stimulated TNF-alpha production up to 50 uM preincubated for 1 hr before LPS-stimulation measured after 16 hrs by ELISA; type: functional
[3] = tested on: BMDC; assay: Antiinflammatory activity in C57BL/6 mouse BMDC assessed as inhibition of LPS-stimulated IL-6 production up to 50 uM preincubated for 1 hr before LPS-stimulation measured after 16 hrs by ELISA; type: functional
[4] = tested on: BMDC; assay: Antiinflammatory activity in C57BL/6 mouse BMDC assessed as inhibition of LPS-stimulated IL-12p40 production up to 50 uM preincubated for 1 hr before LPS-stimulation measured after 16 hrs by ELISA; type: functional
[5] = Antiinflammatory activity in C57BL/6 mouse BMDC assessed as inhibition of LPS-stimulated TNF-alpha production preincubated for 1 hr before LPS-stimulation measured after 16 hrs by ELISA; type: functional
[6] = Antiinflammatory activity in C57BL/6 mouse BMDC assessed as inhibition of LPS-stimulated IL-6 production preincubated for 1 hr before LPS-stimulation measured after 16 hrs by ELISA; type: functional
[7] = Antiinflammatory activity in C57BL/6 mouse BMDC assessed as inhibition of LPS-stimulated IL-12p40 production preincubated for 1 hr before LPS-stimulation measured after 16 hrs by ELISA; type: functional

Compound	Activity [1]	inhibition [2]	inhibition [3]	inhibition [4]	pIC50 [5]	pIC50 [6]	pIC50 [7]
C=C1CC[C@H]2C(C)(C)CCC[C@]2(C)[C@H]1C/C=C1/CC(OC)OC1=O (some centres not stated) [CORONARIN D METHYL ETHER]	Toxic						
CC[C@H](/C=C/[C@@H](C)[C@H]1CC[C@H]2[C@@H]3CC=C4C[C@@H](O)CC[C@]4(C)[C@H]3CC[C@]12C)C(C)C		inactive	inactive	inactive			
C=C1[C@@H](O)C[C@H]2C(C)(C)[C@@H](O)CC[C@]2(C)[C@H]1C/C=C1/COCC1O (some centres not stated) [CORONARIN I]	Toxic						
C=C1CC[C@H]2C(C)(C)CCC[C@]2(C)[C@H]1C/C=C1/CC(O)OC1=O (some centres not stated) [CORONARIN D]					4.38		
CC[C@H](CC[C@@H](C)[C@H]1CC[C@H]2[C@@H]3CC=C4C[C@@H](O[C@@H]5O[C@H](CO)[C@@H](O)[C@H](O)[C@H]5O)CC[C@]4(C)[C@H]3CC[C@]12C)C(C)C		inactive	inactive	inactive			
C=C1CC[C@H]2C(C)(C)CCC[C@]2(C)[C@H]1CCC1=CC(OC)OC1=O (some centres not stated) [CORONARIN G]					4.90	5.12	5.18
CC1(C)CCC[C@]2(C)[C@H]3C/C=C(/C=O)CC(O)CC3=CC(=O)[C@@H]12 (some centres not stated) [CORONARIN H]					4.57	5.05	5.10
C=C[C@@](C)(O)CC/C=C(\C)CCC=C(C)C		inactive	inactive	inactive			
CC[C@H](CC[C@@H](C)[C@H]1CC[C@H]2[C@@H]3CC=C4C[C@@H](O)CC[C@]4(C)[C@H]3CC[C@]12C)C(C)C		inactive	inactive	inactive			
C=C1[C@@H](O)C[C@H]2C(C)(C)CCC[C@]2(C)[C@H]1/C=C/C1=CC(=O)OC1O (some centres not stated) [HEDYFORRESTIN C]					4.98	5.47	6.72
C[S+]([O-])c1ccc(-c2nc(-c3ccc(F)cc3)c(-c3ccncc3)[nH]2)cc1 (configuration not stated) [SB-203580]					5.14	5.45	5.30
